Laboratory results reported in ChEMBL document CHEMBL2034917, “Multifunctional mercapto-tacrine derivatives for treatment of age-related neurodegenerative diseases” (J Med Chem, 2012).
pIC50: −log10 of the molar value. Activity calls are given as the source filed them. The calls are words filed in the database; no cut-off is given here.

Columns and labels:
[1] = test system: Hippocampus; experiment: (§1) Neuroprotective activity in Sprague-Dawley rat hippocampal CA1 region assessed as enhancement of high frequency stimulation-induced long-term potentiation by measuring field excitatory postsynaptic potentials at 50 uM incubated for 5 mins prior to HFS-induction measured after 10 mins by electrophysiology assay (reference value: 133.7 +/- 3.6%); assay type: functional
[2] = test system: Rattus norvegicus; experiment: Hepatotoxicity in Sprague-Dawley rat assessed increase in alanine aminotransferase level in serum at 6 umol/100g of body weight, ip up to 120 hrs; assay type: toxicity, organism-based; settings: in vivo
[3] = molecular target: Cholinesterase (Equus caballus, UniProt P81908)
Cholinesterase, sequence (P81908 whole entry): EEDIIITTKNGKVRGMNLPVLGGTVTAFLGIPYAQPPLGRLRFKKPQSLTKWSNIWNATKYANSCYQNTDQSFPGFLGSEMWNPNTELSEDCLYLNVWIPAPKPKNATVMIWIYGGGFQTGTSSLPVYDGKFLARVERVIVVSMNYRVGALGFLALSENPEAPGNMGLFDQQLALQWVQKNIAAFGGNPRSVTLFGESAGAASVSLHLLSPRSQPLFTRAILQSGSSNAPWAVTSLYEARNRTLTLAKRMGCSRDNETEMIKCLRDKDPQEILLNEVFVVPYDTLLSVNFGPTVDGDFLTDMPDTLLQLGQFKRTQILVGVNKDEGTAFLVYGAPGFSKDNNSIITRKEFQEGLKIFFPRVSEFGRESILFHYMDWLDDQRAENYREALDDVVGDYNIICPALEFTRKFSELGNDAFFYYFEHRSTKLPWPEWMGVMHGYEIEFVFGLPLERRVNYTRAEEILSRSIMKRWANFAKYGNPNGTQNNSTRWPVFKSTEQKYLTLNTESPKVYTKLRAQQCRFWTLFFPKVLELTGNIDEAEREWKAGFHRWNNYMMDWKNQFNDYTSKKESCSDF
Description: Inhibition of equine serum butyrylcholine esterase using butyrylcholine chloride as substrate incubated for 5 mins prior to substrate addition measured every 3 mins by Ellman's assay

[4] = test system: SH-SY5Y; experiment: Neuroprotective activity in human SH-SY5Y cells assessed as protection against H2O2-induced oxidative stress at 3 uM incubated for 1 hr prior to H2O2-challenge measured after 12 hrs by MTT assay; assay type: functional
[5] = test system: SH-SY5Y; experiment: Neuroprotective activity in human SH-SY5Y cells assessed as protection against H2O2-induced oxidative stress at 30 uM incubated for 1 hr prior to H2O2-challenge measured after 12 hrs by MTT assay; assay type: functional
[6] = molecular target: Acetylcholinesterase (Electrophorus electricus, UniProt O42275); experiment: Inhibition of electric eel acetylcholine esterase using […] as substrate incubated for 5 mins prior to substrate addition measured every 3 mins by Ellman's assay
Acetylcholinesterase, sequence (O42275 whole entry): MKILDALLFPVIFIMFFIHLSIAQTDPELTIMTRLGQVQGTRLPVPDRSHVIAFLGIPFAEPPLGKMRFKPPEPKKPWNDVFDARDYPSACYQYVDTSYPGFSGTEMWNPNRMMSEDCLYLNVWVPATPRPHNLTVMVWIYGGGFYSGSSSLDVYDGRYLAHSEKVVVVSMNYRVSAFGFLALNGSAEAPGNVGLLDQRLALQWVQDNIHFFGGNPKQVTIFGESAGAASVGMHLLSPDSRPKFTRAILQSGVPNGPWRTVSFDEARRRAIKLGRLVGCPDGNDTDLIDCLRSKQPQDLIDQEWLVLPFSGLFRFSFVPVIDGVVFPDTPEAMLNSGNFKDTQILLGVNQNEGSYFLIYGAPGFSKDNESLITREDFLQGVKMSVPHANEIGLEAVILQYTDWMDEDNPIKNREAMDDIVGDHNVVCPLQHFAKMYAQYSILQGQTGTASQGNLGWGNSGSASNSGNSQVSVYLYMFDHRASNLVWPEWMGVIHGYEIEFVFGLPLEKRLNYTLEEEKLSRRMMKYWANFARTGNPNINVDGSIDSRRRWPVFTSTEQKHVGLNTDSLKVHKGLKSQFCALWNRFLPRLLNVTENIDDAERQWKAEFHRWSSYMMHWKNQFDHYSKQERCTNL

[7] = test system: SH-SY5Y; experiment: Neuroprotective activity in human SH-SY5Y cells assessed as protection against H2O2-induced oxidative stress at 1 uM incubated for 1 hr prior to H2O2-challenge measured after 12 hrs by MTT assay; assay type: functional
[8] = test system: SH-SY5Y; experiment: Neuroprotective activity in human SH-SY5Y cells assessed as protection against H2O2-induced oxidative stress at 10 uM incubated for 1 hr prior to H2O2-challenge measured after 12 hrs by MTT assay; assay type: functional
[9] = test system: Rattus norvegicus; experiment: Hepatotoxicity in Sprague-Dawley rat assessed increase in aminotransferase level in serum at 6 umol/100g of body weight, ip up to 120 hrs; assay type: toxicity, organism-based; settings: in vivo
[10] = test system: SH-SY5Y; experiment: Neuroprotective activity in human SH-SY5Y cells assessed as protection against H2O2-induced oxidative stress incubated for 1 hr prior to H2O2-challenge measured after 12 hrs by MTT assay; assay type: functional, cell-based
[11] = test system: Hippocampus; experiment: as §1, with “134.3” for “133.7”, “3.9%)” for “3.6%)”; assay type: functional
[12] = test system: Rattus norvegicus; experiment: Neuroprotective activity in Sprague-Dawley rat assessed as enhancement of high frequency stimulation-induced long-term potentiation in hippocampus at 50 uM, icv after 3 hrs (reference value: 126 +/- 3.6%); assay type: functional
[13] = test system: Hippocampus; experiment: as §1, with “potentials” for “potentials at 50 uM”, “136.3” for “133.7”, “5.3%)” for “3.6%)”; assay type: functional
[14] = molecular target: Acetylcholinesterase (Electrophorus electricus) (UniProt O42275); experiment: Mixed type inhibition of electric eel acetylcholine esterase using […] as substrate by Lineweaver-Burk reciprocal plot analysis
Acetylcholinesterase (Electrophorus electricus), sequence (O42275 24-633 limits assumed): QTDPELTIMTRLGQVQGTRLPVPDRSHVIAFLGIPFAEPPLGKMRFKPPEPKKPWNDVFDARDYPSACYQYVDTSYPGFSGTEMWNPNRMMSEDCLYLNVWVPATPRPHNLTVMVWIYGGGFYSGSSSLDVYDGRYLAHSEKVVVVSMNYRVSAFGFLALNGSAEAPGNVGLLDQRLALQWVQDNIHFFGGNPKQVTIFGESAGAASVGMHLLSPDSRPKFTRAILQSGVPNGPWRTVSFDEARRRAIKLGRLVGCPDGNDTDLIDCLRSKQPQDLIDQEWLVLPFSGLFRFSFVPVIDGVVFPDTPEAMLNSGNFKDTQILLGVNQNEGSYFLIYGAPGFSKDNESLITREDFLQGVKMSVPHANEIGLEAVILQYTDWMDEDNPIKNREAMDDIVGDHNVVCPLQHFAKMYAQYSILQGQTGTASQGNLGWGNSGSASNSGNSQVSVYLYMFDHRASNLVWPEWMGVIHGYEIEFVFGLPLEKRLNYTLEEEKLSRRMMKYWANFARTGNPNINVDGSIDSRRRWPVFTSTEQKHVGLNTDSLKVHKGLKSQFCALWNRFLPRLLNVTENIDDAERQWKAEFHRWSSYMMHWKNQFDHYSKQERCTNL

[15] = molecular target: Acetylcholinesterase (Electrophorus electricus) (UniProt O42275); experiment: Time dependent inhibition of electric eel acetylcholine esterase using […] as substrate incubated for 5 mins prior to substrate addition measured for 2 to 40 mins by Ellman's assay

Row | Structure (SMILES) | Activity [1] [%] | Activity [2] | pIC50 [3] | Activity [4] [%] | Activity [5] [%] | pIC50 [6] | Activity [7] [%] | Activity [8] [%] | Activity [9] | Activity [10] | Activity [11] [%] | Activity [12] [%] | Activity [13] [%] | inhibition [14] | inhibition [15]
1 | O=C(CCS)NCCCNc1c2c(nc3ccccc13)CCCC2 | 160.8 | Non-toxic | 6.74 | 22 | 34 | 5.22 | 45.9 | 16.7 | Non-toxic | – | – | – | – | – | –
2 | CC(=O)SCCC(=O)NCCCCNc1c2c(nc3ccccc13)CCCC2 | – | – | 6.81 | 30.1 | 56.5 | 5.14 | 21.7 | 43.6 | – | Dose-dependent effect | – | – | – | – | –
3 | O=C(CCS)NCCCCNc1c2c(nc3ccccc13)CCCC2 | – | – | 6.89 | 5.8 | 38.2 | 5.08 | 23.8 | 21.5 | – | – | – | – | – | – | –
4 | O=C(CCS)NCCCCCCNc1c2c(nc3cc(Cl)ccc13)CCCC2 | – | – | 6.75 | 27.2 | 37.8 | 6.75 | 52.3 | 24.5 | – | – | 157.1 | 149 | – | – | –
5 | Cc1c(C)c2c(c(C)c1O)CCC(C)(C(=O)O)O2 (stereo unspecified) [TROLOX] | – | – | – | – | 59.1 | – | – | 44.2 | – | – | – | – | – | – | –
6 | CC(=O)SCCC(=O)NCCCNc1c2c(nc3ccccc13)CCCC2 | – | Non-toxic | 6.64 | 35.9 | 50.6 | 5.76 | 32.4 | 38.2 | Non-toxic | Dose-dependent effect | – | – | 136.2 | – | –
7 | CC(=O)SCCC(=O)NCCCCCCNc1c2c(nc3cc(Cl)ccc13)CCCC2 | – | – | 7.04 | 17.1 | 34 | 7.37 | 8.1 | 28.5 | – | Dose-dependent effect | – | – | – | Active | inactive
